Values after ≈ are worked out from the molar mass of the structure shown. Values joined by “and” are separate entries in the source; they are usually repeats but may differ in a detail not shown here. Equal values may be shown once. Read-outs that look alike come from different tables or passages of the source.
Experiments:
[1] = cited from earlier work; for LogS(mol/L): SC2-1 dataset (Second Solubility Challenge, tight subset), aqueous solubility; for Class: SC2-1 dataset, aqueous solubility class 0-6
[2] = cited from earlier work; for LogS(mol/L): SC2-2 dataset (Second Solubility Challenge, loose subset), aqueous solubility; for Class: SC2-2 dataset, aqueous solubility class 0-6
[3] = Saturation shake-flask aqueous solubility, gravimetric determination; conditions: for solubility thermodynamic at 48 h: water (saturated aqueous solution); for solubility thermodynamic at 48 h / solubility at 48 h: thermodynamic from solid; for solubility at 48 h: Experimental Log S; for Experimental Class: European Pharmacopoeia solubility class from the experimental solubility
Procedure: Excess solid drug was added to a vial to prepare supersaturated aqueous solutions. The vial was placed in a constant temperature mixer (Titan Technology, SD2‐100) at 25 °C and shaken for 48 h at a speed of 500 rpm. […] After equilibration, the solution was centrifugated at room temperature at 8000 rpm, and the supernatant was collected. The concentration of the supernatant was determined using the gravimetric method. A measured volume of the supernatant (e.g. 1 mL) was transferred to a pre‐weighted empty vial, dried in a vacuum oven at 70 °C, and re‐weighed. The difference between the initial and final weights represents the drug content in the saturated solution. Each compound was tested in triplicate to ensure accuracy.

[4] = water, 25 °C, averaged over triplicate
[5] = water, 25 °C, single replicate of triplicate
[6] = water, 25 °C, shaken 48 h, triplicate, Log S = base-10 logarithm of moles per liter

Row | SMILES | LogS(mol/L) [1] [mol/L] | Class [1] | other results
1 | O=C1CCc2ccc(OCCCCN3CCN(c4cccc(Cl)c4Cl)CC3)cc2N1 | -6.64 | 6 (Practically insoluble or insoluble (6)) | –
2 | CO[C@]12CC[C@@]3(C[C@@H]1[C@@](C)(O)C(C)(C)C)[C@H]1Cc4ccc(O)c5c4[C@@]3(CCN1CC1CC1)[C@H]2O5 | – | – | LogS(mol/L) [2]: -6.07 mol/L; Class [2]: 6 (Practically insoluble or insoluble (6))
3 | CCOc1ccc2nc(S(N)(=O)=O)sc2c1 [CCOc1ccc2nc(S(N)(=O)=O)sc2c1] | -3.76 | 6 (Practically insoluble or insoluble (6)) | –
4 | Cc1c(O)cccc1C(=O)N[C@@H](CSc1ccccc1)[C@H](O)CN1C[C@H]2CCCC[C@H]2C[C@H]1C(=O)NC(C)(C)C | -6.21 | 6 (Practically insoluble or insoluble (6)) | –
5 | CCn1cc(C(=O)O)c(=O)c2cc(F)c(N3CCNCC3)cc21 | -2.88 | 5 (Very slightly soluble (5)) | –
6 | CCCCC1C(=O)N(c2ccccc2)N(c2ccc(O)cc2)C1=O (stereo not drawn) [CCCCC1C(=O)N(c2ccccc2)N(c2ccc(O)cc2)C1=O] | -3.94 | 6 (Practically insoluble or insoluble (6)) | –
7 | NS(=O)(=O)c1cc2c(cc1Cl)NC(CSCc1ccccc1)=NS2(=O)=O | -4.84 | 6 (Practically insoluble or insoluble (6)) | –
8 | O=C1C(O)=C(C2CCC(c3ccc(Cl)cc3)CC2)C(=O)c2ccccc21 (stereo not drawn) | -6.07 | 6 (Practically insoluble or insoluble (6)) | –
9 | COc1ccc(Cc2nccc3cc(OC)c(OC)cc23)cc1OC [COc1ccc(Cc2nccc3cc(OC)c(OC)cc23)cc1OC] | -4.33 | 6 (Practically insoluble or insoluble (6)) | –
10 | Nc1nc2c(c(=O)[nH]1)CC=N2 [7-Deazaguanine] | – | – | Experimental Log S ([3]; single replicate of triplicate): -1.8036 and -1.6879; Experimental S ([3]; single replicate of triplicate): 2.1200 and 2.3600 and 3.0800; solubility thermodynamic at 48 h ([3]; 25 °C, water): 2520 µg/mL (≈ 16.8 mM); solubility at 48 h [3, 4]: 16.6 mM (≈ 2.49 mg/mL); solubility at 48 h [3, 5]: 14.1 mM (≈ 2.12 mg/mL)
11 | COc1ccc2[nH]c([S+]([O-])Cc3ncc(C)c(OC)c3C)nc2c1 (stereo not drawn) | – | – | LogS(mol/L) [2]: -3.7 mol/L; Class [2]: 6 (Practically insoluble or insoluble (6))
12 | O=C1CCc2cc(OCCCCc3nnnn3C3CCCCC3)ccc2N1 [O=C1CCc2cc(OCCCCc3nnnn3C3CCCCC3)ccc2N1] | -4.93 | 6 (Practically insoluble or insoluble (6)) | –
13 | CC(=O)Nc1nnc(S(N)(=O)=O)s1 [CC(=O)Nc1nnc(S(N)(=O)=O)s1] | -2.38 | 5 (Very slightly soluble (5)) | –
14 | CC(CN1c2ccccc2Sc2ccccc21)N(C)C (stereo not drawn) [CC(CN1c2ccccc2Sc2ccccc21)N(C)C] | -4.38 | 6 (Practically insoluble or insoluble (6)) | –
15 | CC(C(=O)O)c1ccc(N2Cc3ccccc3C2=O)cc1 (stereo not drawn) [CC(C(=O)O)c1ccc(N2Cc3ccccc3C2=O)cc1] | -4.65 | 6 (Practically insoluble or insoluble (6)) | –
16 | Cc1cc(=O)oc2cc(O[C@@H]3O[C@H](CO)[C@@H](O)[C@H](O)[C@H]3O)ccc12 [4‐methylumbelliferyl β‐D‐glucoside] | – | – | Experimental Class [3]: 4 (Slightly soluble (4)); Experimental Log S [3, 6]: −1.886 ± 0.016
17 | CC(=O)OCC(=O)[C@@]1(OC(C)=O)[C@@H](C)C[C@H]2[C@@H]3C[C@H](F)C4=CC(=O)C=C[C@]4(C)[C@@]3(F)[C@@H](O)C[C@@]21C | -4.82 | 6 (Practically insoluble or insoluble (6)) | –
18 | Nc1ccc(S(=O)(=O)Nc2nccs2)cc1 [Nc1ccc(S(=O)(=O)Nc2nccs2)cc1] | -2.62 | 5 (Very slightly soluble (5)) | –
19 | CCC(C)C1(CC)C(=O)NC(=O)NC1=O (stereo not drawn) [CCC(C)C1(CC)C(=O)NC(=O)NC1=O] | -2.22 | 4 (Slightly soluble (4)) | –
20 | CCOc1nc2cccc(C(=O)OC(C)OC(=O)OC3CCCCC3)c2n1Cc1ccc(-c2ccccc2-c2nn[nH]n2)cc1 (stereo not drawn) | -6.79 | 6 (Practically insoluble or insoluble (6)) | –
21 | CS(=O)(=O)c1ccc(C2=C(c3ccccc3)C(=O)OC2)cc1 | -4.61 | 6 (Practically insoluble or insoluble (6)) | –
22 | CCCNC(=O)NS(=O)(=O)c1ccc(Cl)cc1 [CCCNC(=O)NS(=O)(=O)c1ccc(Cl)cc1] | -3.17 | 5 (Very slightly soluble (5)) | –
23 | OC[C@H]1O[C@@H](n2cnc3c(O)ncnc32)C[C@@H]1O [Deoxyinosine] | – | – | Experimental Class [3]: 3 (Sparingly soluble (3)); Experimental Log S ([3]; single replicate of triplicate): -1.3814 and -1.3992; Experimental S ([3]; single replicate of triplicate): 10.1800 and 10.4800 and 10.0600; solubility thermodynamic at 48 h ([3]; 25 °C, water): 10200 µg/mL (≈ 40.6 mM); solubility at 48 h [3, 4]: 40.6 mM (≈ 10.2 mg/mL); solubility at 48 h [3, 6]: 40.6 mM (≈ 10.2 mg/mL); solubility at 48 h [3, 5]: 40.4 mM (≈ 10.2 mg/mL)

— article PMC12697872, “Rethinking the AI Paradigm for Solubility Prediction of Drug‑Like Compounds with Dual‐Perspective Modeling and Experimental Validation” (Advanced Science, 2025)
